Publication PMC11403616, “Arcopilins: A New Family of Staphylococcus aureus Biofilm Disruptors from the Soil Fungus Arcopilus navicularis” (Journal of Medicinal Chemistry, 2024)
Converted amounts (≈) assume the structure as drawn. “Also recorded” adds a separate entry of the source. Where two headings read alike, the source gives them in different places.

Columns and labels:
human cancer cell lines = conditions: cited from earlier work
[1] = tested on: different bacterial and fungal strains; test: Antimicrobial activities against bacterial and fungal strains (whole panel); format: cell-based; conditions: whole panel of bacteria and fungi
Procedure: (§1) The antimicrobial activities of compounds 1–7 (Acp A–G) were assessed against different bacterial and fungal strains in addition to their cytotoxic effects on two mammalian cell lines. The tested microorganisms comprised a diverse array of clinically relevant pathogens, encompassing sensitive indicator strains. Among the Gram-positive bacteria were Bacillus subtilis, Staphylococcus aureus, and Mycolicibacterium smegmatis. Gram-negative bacteria included Acinetobacter baumannii, Chromobacterium violaceum, Escherichia coli, and Pseudomonas aeruginosa. Additionally, filamentous fungi such as Mucor hiemalis and yeasts including Candida albicans, Wickerhamomyces anomalus, Rhodotorula glutinis, and Schizosaccharomyces pombe were included. Generally, all compounds presented similar biological properties, summarized in weak or no activity against fungal pathogens as well as weak to moderate inhibition of Gram-positive bacteria (Table 2).
(§2) The antimicrobial and cytotoxic assays were performed according to the methods reported previously.[57]

two mammalian cell lines = test: Cytotoxic effects on two mammalian cell lines (summary); format: cell-based; conditions: KB-3-1 and L929
Procedure: as §1, §2

[2] = tested on: planktonic cells of S. aureus DSM 1104; test: Checkerboard broth dilution assay (FICI); format: cell-based, Staphylococcus aureus
Description: After assessing the effects of Acp A on the pathogen S. aureus, we delved deeper into the interaction of Acp A with established antibiotics (GM and Vac). This exploration focused on both planktonic cells and preformed biofilms of S. aureus. Consequently, we used a checkerboard assay to determine the fractional inhibitory concentration index (FICI) for combinations involving Acp A, GM, or Vac based on both their MIC values in combination.[49]
The interaction between arcopilin A, vancomycin, and gentamicin against S. aureus DSM 1104 was evaluated using a checkerboard broth dilution method to determine the fractional inhibitory concentration indices (FICIs), calculated as FIC = MIC of drug A in combination/MIC of drug A alone + MIC of drug B in combination/MIC of drug B alone.[59] The FICIs were interpreted as synergistic (FICI ≤ 0.5). For this assay, a seed culture was prepared as previously described to inoculate fresh CASO with 4% glucose broth to match the turbidity of a 0.1 McFarland standard suspension. Then, 100 μL of bacterial suspension was distributed in 96-well nontissue microtiter plates (TPP nontissue culture ref no. 92197, Switzerland). Arcopilin A (7.8–2 μg/mL) and antibiotics (vancomycin and gentamicin: 31.3–0.016 μg/mL) were added in increasing concentrations in columns and rows, respectively. The experiments were conducted in duplicate.

[3] = tested on: preformed biofilms of S. aureus DSM 1104; test: CFU count analysis, synergistic effects on preformed biofilms; format: cell-based, Staphylococcus aureus; conditions: Acp A 7.8–3.9 μg/mL, GM 7.8–2 μg/mL, Vac 15.6–3.9 μg/mL
Procedure: The seed culture of S. aureus DSM 1104 was prepared as previously described, and the OD600 was adjusted to match the turbidity of a 0.001 McFarland standard. Then, 150 μL of bacterial solution in CASO with 4% glucose broth was incubated in 96-well tissue plates (TPP tissue culture ref no. 92196, Switzerland) for 24 h at 150 rpm. […] Methanol (2.5%) was used as the solvent control. The plates were incubated for a further 24 h at 37 °C. Colony-forming unit (CFU) count analysis of arcopilin A, antibiotics (vancomycin and gentamicin), and their combinations was performed as previously described.[58] Cells were suspended in the well 50 times. Dilution series in 1 to 10 steps (20 μL in 200 μL) were prepared down to a final dilution level of 10^–6, and 100 μL of this last dilution was platted on LB agar plates using 3 mm small glass beads (5 to 10, Omnilab, Germany) to homogeneously spread the liquid. Individual colonies on agar plates were counted after incubation at 30 °C for 24 and 48 h.[60] Afterward, CFUs were calculated by considering the dilution factors. Error bars indicate the SD of duplicate with two repeats.

KB-3-1 (ACC 158) = test: Cytotoxicity against mammalian cell lines; format: cell-based; conditions: Homo sapiens
Procedure: as §1, §2

L929 (ACC 2) = test: Cytotoxicity against mammalian cell lines; format: cell-based; conditions: Mus musculus
Procedure: as §1, §2

B. subtilis DSM 10 = test: MIC against bacteria (antimicrobial assay); format: cell-based, Bacillus subtilis; conditions: for MIC: Bacillus subtilis, DSM10, DSM 10, – = no activity observed under test conditions; for MIC B. subtilis: supplement CSV, decimal comma, unit not given, in µg/mL
Procedure: as §1, §2

S. aureus DSM 346 = test: MIC against bacteria (antimicrobial assay); format: cell-based, Staphylococcus aureus; conditions: for MIC: Staphylococcus aureus, DSM346, DSM 346, – = no activity observed under test conditions; for MIC S. aureus: supplement CSV, decimal comma, unit not given, in µg/mL
Procedure: as §1, §2

[4] = tested on: preformed biofilms of S. aureus DSM 1104; test: Disruption of preformed biofilms, crystal violet assay; format: cell-based, Staphylococcus aureus
Procedure: Therefore, Acp A–G were evaluated against preformed biofilms of S. aureus using crystal violet staining.[47]
Cultures of S. aureus DSM 1104 were prepared by inoculating 1 mL aliquots from a frozen stock (−20 °C) into 25 mL of CASO medium and incubating them overnight at 37 °C with shaking at 130 rpm.
The crystal violet assay was performed according to a previously reported procedure.[47] Arcopilins A–G were tested in serial dilutions (250–2 μg/mL), with methanol and microporenic acid A (MAA) as negative and positive controls, respectively. Statistical differences between samples and the controls were determined using a two-tailed Student’s t test, with statistical significance defined as p < 0.01. Statistical analysis was carried out using GraphPad Prism 9 (GraphPad Software, San Diego, CA).[58]

M. hiemalis DSM 2656 = test: MIC against fungi (antimicrobial assay); format: cell-based, Mucor hiemalis; conditions: for MIC: Mucor hiemalis, DSM2656, DSM 2656, – = no activity observed under test conditions; for MIC M. hiemalis: supplement CSV, decimal comma, unit not given, in µg/mL
Procedure: as §1, §2

S. aureus = conditions: cited from earlier work
[5] = tested on: methicillin-resistant S. aureus (MRSA); conditions: cited from earlier work
M. smegmatis ATCC 700084 = test: MIC against bacteria (antimicrobial assay); format: cell-based, Mycolicibacterium smegmatis
Procedure: as §1, §2

[6] = KB 3-1, ACC 158, – = no activity observed under test conditions, read-out: IC50 against mammalian cell lines, KB-3-1
[7] = L929, ACC 2, – = no activity observed under test conditions, read-out: IC50 against mammalian cell lines, L929

myceliothermophin E
antitumor activity against a number of human cancer cell lines (human cancer cell lines): potent antitumor activity

C/C=C(\C)[C@H]1C(C)=C[C@@]2(C)C[C@@H](C)CC[C@@H]2[C@H]1C(=O)C1=C[C@](CC(C)C)(OC)NC1=O [myceliothermophin D]
antitumor activity against a number of human cancer cell lines (human cancer cell lines): potent antitumor activity

C[C@@H](C[C@H](C)C(=O)C1=C(O)/C(=C/c2ccccc2)NC1=O)C[C@](C)(O)[C@@H](O)C(=O)O [Acp F, Arcopilin F]
antimicrobial activity (in words) [1]: did not exhibit any antimicrobial activity | cytotoxic properties (in words) (two mammalian cell lines): weak or no cytotoxic effects

CN[C@H](CC(C)C)C(=O)N[C@H]1C(=O)N[C@@H](CC(N)=O)C(=O)N[C@H]2C(=O)N[C@H]3C(=O)N[C@H](C(=O)N[C@H](C(=O)O)c4cc(O)cc(O)c4-c4cc3ccc4O)[C@H](O)c3ccc(c(Cl)c3)Oc3cc2cc(c3O[C@@H]2O[C@H](CO)[C@@H](O)[C@H](O)[C@H]2O[C@H]2C[C@](C)(N)[C@H](O)[C@H](C)O2)Oc2ccc(cc2Cl)[C@H]1O [Vac, vancomycin]
increase of the potency of the antibiotic in combination with Acp A ([2]; Acp A 3.9 μg/mL, MIC alone versus in combination): ≤ 31 fold | MIC ([2]; Staphylococcus aureus, DSM1104, read-out: MIC of each single compound (MICs)): 2 µg/mL | MIC in combination (MICc), Acp A and Vac ([2]; combination of Acp A (3.9 μg/mL) with Vac): 0.065 µg/mL | improvement in the inhibitory effects in combination with Acp A [3]: ~3 fold

C[C@@H](C[C@H](C)C(=O)C1=C(O)/C(=C/c2ccccc2)NC1=O)C[C@](C)(O)C(=O)CO [Acp E, Arcopilin E]
antimicrobial activity (in words) [1]: did not exhibit any antimicrobial activity | cytotoxic properties (in words) (two mammalian cell lines): weak or no cytotoxic effects

C/C(=C\c1csc(C)n1)[C@@H]1C[C@@H]2O[C@]2(C)CCC[C@H](C)[C@H](O)[C@@H](C)C(=O)C(C)(C)[C@@H](O)CC(=O)O1 [Epothilone B, reference compound]
IC50 (KB-3-1 (ACC 158); KB 3-1, read-out: IC50 against mammalian cell lines, KB-3-1): 0.0086 ng/mL (≈ 1.69e-05 µM) | IC50 (L929 (ACC 2); L929, read-out: IC50 against mammalian cell lines, L929): 0.086 ng/mL (≈ 0.000169 µM)

C[C@H](C[C@@H](C)[C@H](C)O)C[C@H](C)C(=O)C1=C(O)/C(=C/c2ccccc2)NC1=O [Acp B, Arcopilin B]
cytotoxic properties (in words) (two mammalian cell lines): weak or no cytotoxic effects | MIC (B. subtilis DSM 10): 66.7 µg/mL (≈ 180 µM) | MIC B. subtilis (B. subtilis DSM 10): 66,7 | MIC (S. aureus DSM 346): 66.7 µg/mL (≈ 180 µM) | MIC S. aureus (S. aureus DSM 346): 66,7

CN(C)[C@@H]1C(O)=C(C(N)=O)C(=O)[C@@]2(O)C(O)=C3C(=O)c4c(O)cccc4[C@@](C)(O)[C@H]3[C@H](O)[C@@H]12 [Oxytetracycline, reference compound]
MIC (B. subtilis DSM 10): 8.3 µg/mL (≈ 18 µM)

CC[C@H](C)[C@@H]1O[C@H](c2c(O)c(-c3ccccc3)cn(O)c2=O)[C@@H](C)C[C@@H]1C [Acp G, Arcopilin G]
IC50 (KB-3-1 (ACC 158); [6]): 0.2 ng/mL (≈ 0.000538 µM) | IC50 (L929 (ACC 2); [7]): 0.024 ng/mL (≈ 6.46e-05 µM) | cytotoxic properties (in words) (two mammalian cell lines): most cytotoxic metabolite | MIC (B. subtilis DSM 10): 8.3 µg/mL (≈ 22.3 µM) | MIC B. subtilis (B. subtilis DSM 10): 8,3 | MIC (S. aureus DSM 346): 16.6 µg/mL (≈ 44.7 µM) | MIC S. aureus (S. aureus DSM 346): 16,6

C/C=C(\C)[C@H]1C(C)=C[C@@]2(C)C[C@@H](C)CC[C@@H]2[C@H]1C(=O)C1=C[C@@](CC(C)C)(OC)NC1=O [myceliothermophin C]
antitumor activity against a number of human cancer cell lines (human cancer cell lines): potent antitumor activity

C[C@H](C[C@@H](C)[C@H](C)OC=O)C[C@H](C)C(=O)C1=C(O)/C(=C/c2ccccc2)NC1=O [Acp C, Arcopilin C]
IC50 (KB-3-1 (ACC 158); [6]): 800 ng/mL (≈ 2 µM) | IC50 (L929 (ACC 2); [7]): 1400 ng/mL (≈ 3.5 µM) | MIC (B. subtilis DSM 10): 33.3 µg/mL (≈ 83.4 µM) | MIC B. subtilis (B. subtilis DSM 10): 33,3 | efficacy toward preformed biofilms ([4]; at 3.9 μg/mL): 35–45% | effectiveness in the dispersal of preformed biofilms ([4]; between 7.8 μg/mL and 250 μg/mL): approximately 50% | disrupting effect on preformed biofilms (in words) ([4]; tested 250–2 μg/mL): most promising disrupting effects; also recorded: remarkable effectiveness | MIC (S. aureus DSM 346): 33.3 µg/mL (≈ 83.4 µM) | MIC S. aureus (S. aureus DSM 346): 33,3 | MIC (M. hiemalis DSM 2656): 66.7 µg/mL (≈ 167 µM) | MIC M. hiemalis (M. hiemalis DSM 2656): 66,7

C/C=C(\C)[C@@H]1C(C)=C[C@]2(C)C[C@H](C)CC[C@H]2[C@@H]1C(=O)C1=C[C@](Cc2ccccc2)(OC)NC1=O [chaetolivacine B]
antibacterial properties against S. aureus (S. aureus): moderate antibacterial properties | antibacterial properties against MRSA [5]: moderate antibacterial properties

CC[C@H](C)C[C@@H](C)C[C@H](C)C(=O)C1=C(O)/C(=C/c2ccccc2)NC1=O [Acp D, Arcopilin D]
IC50 (KB-3-1 (ACC 158); [6]): 800 ng/mL (≈ 2.25 µM) | IC50 (L929 (ACC 2); [7]): 1700 ng/mL (≈ 4.78 µM) | MIC (M. smegmatis ATCC 700084; Mycolicibacterium smegmatis, ATCC700084, ATCC 700084, – = no activity observed under test conditions): 66.7 µg/mL (≈ 188 µM) | MIC M. smegmatis (M. smegmatis ATCC 700084; supplement CSV, decimal comma, unit not given, in µg/mL): 66,7 | MIC (B. subtilis DSM 10): 4.2 µg/mL (≈ 11.8 µM) | MIC B. subtilis (B. subtilis DSM 10): 4,2 | lowest concentration with significant dispersal effects [4]: 31.3 µg/mL | MIC (M. hiemalis DSM 2656): 66.7 µg/mL (≈ 188 µM) | MIC M. hiemalis (M. hiemalis DSM 2656): 66,7
